Strand notation (5' to 3'): a small letter for the sugar, then the base; units joined by * are phosphorothioate-linked, units joined directly phosphodiester-linked; [ ] holds rarer units or linkages, { } end groups; capitals alone tell only the bases. e = 2'-O-(2-methoxyethyl) (MOE); [5mC] = 5-methylcytosine; d = 2'-deoxy (DNA)
These substances were tested on human Factor 7 mRNA (assay: Antisense inhibition of human Factor 7 mRNA in HepB3 cells, 50 nM antisense oligonucleotide, lipofectin). Conditions: Table 1, 50 nM, lipofectin, approximately 24 hours, relative to untreated control cells.
Type: cell-based
Procedure: Antisense oligonucleotides targeted to a Factor 7 nucleic acid were tested for their effects on Factor 7 mRNA in vitro. Cultured HepB3 cells at a density of 4,000 cells per well were transfected using lipofectin reagent with 50 nM antisense oligonucleotide. After a treatment period of approximately 24 hours, RNA was isolated from the cells and Factor 7 mRNA levels were measured by real-time RT-PCR, as described herein. Factor 7 mRNA levels were adjusted according to total RNA content as measured by RIBOGREEN®. Results are presented as percent inhibition of Factor 7, relative to untreated control cells.
(§1) Antisense oligonucleotides targeted to a Factor 7 nucleic acid were designed and tested for their effects on Factor 7 mRNA in vitro. Certain antisense oligonucleotides from Table 3 were also retested for their effects on Factor 7 mRNA in vitro. Cultured HepB3 cells at a density of 4,000 cells per well were transfected using lipofectin reagent with 50 nM antisense oligonucleotide. After a treatment period of approximately 24 hours, RNA was isolated from the cells and Factor 7 mRNA levels were measured by real-time RT-PCR, as described herein. Human Factor 7 primer probe set RTS 2927 was used to measure mRNA levels. Factor 7 mRNA levels were adjusted according to total RNA content as measured by RIBOGREEN®. Results are presented as percent inhibition of Factor 7, relative to untreated control.
as §1, with “tested” for “tested for their effects on Factor 7 mRNA in vitro. Certain antisense oligonucleotides from Table 3 were also retested”
These gapmers were designed by creating gapmers shifted slightly upstream and downstream (i.e. “microwalk”) of the original gapmers from Table 7. Gapmers were also created with various motifs, e.g. 5-10-5 MOE, 3-14-3 MOE, and 2-13-5 MOE. These gapmers were tested in vitro. Cultured HepB3 cells at a density of 4,000 cells per well were transfected using lipofectin reagent with 50 nM antisense oligonucleotide. After a treatment period of approximately 24 hours, RNA was isolated from the cells and Factor 7 mRNA levels were measured by real-time RT-PCR. Factor 7 mRNA levels were adjusted according to total RNA content, as measured by RIBOGREEN®. Results are presented as percent inhibition of Factor 7, relative to untreated control cells.

Substance | % Inhibition
407934 (antisense e[5mC]*eT*eG*eA*eA*dG*dT*dG*dA*dA*dG*dA*dT*dG*dA*eT*eA*eA*eT*eG) [compound 407934] | 45%
407922 (antisense eT*e[5mC]*eG*eA*e[5mC]*dG*d[5mC]*dA*dG*d[5mC]*d[5mC]*dT*dT*dG*dG*e[5mC]*eT*eT*eT*e[5mC]) [compound 407922] | 82%
407637 (antisense eG*eT*eA*e[5mC]*eT*dG*dG*dG*dA*dG*dA*d[5mC]*d[5mC]*d[5mC]*dT*eG*eG*eT*eG*eT) [compound 407637] | 71%
407886 (antisense eG*e[5mC]*eA*eG*eA*dG*dG*dA*dG*d[5mC]*d[5mC]*dT*dG*dA*dG*eG*eG*e[5mC]*e[5mC]*eT) [compound 407886] | 72%
403093 (antisense eG*eA*eG*eA*e[5mC]*d[5mC]*d[5mC]*dT*dG*dG*dT*dG*dT*dA*d[5mC]*eA*e[5mC]*e[5mC]*e[5mC]*e[5mC]) [compound 403093] | 75%
407604 (antisense e[5mC]*eA*e[5mC]*eA*e[5mC]*dT*dG*dG*dT*d[5mC]*d[5mC]*d[5mC]*d[5mC]*dA*dT*e[5mC]*eA*e[5mC]*eT*eG) [compound 407604] | 34%
407628 (antisense eT*eG*eA*eT*eG*dA*d[5mC]*d[5mC]*dT*dG*d[5mC]*dG*d[5mC]*d[5mC]*dA*e[5mC]*e[5mC]*e[5mC]*eG*e[5mC]) [compound 407628] | 38%
407958 (antisense eG*e[5mC]*e[5mC]*eG*eT*dG*d[5mC]*dT*dT*dG*d[5mC]*d[5mC]*dG*dG*dA*eG*eT*e[5mC]*eT*eG) [compound 407958] | 58%
407607 (antisense eT*eG*eG*eA*eG*d[5mC]*dT*dG*dG*dT*d[5mC]*d[5mC]*dT*dT*dG*e[5mC]*eA*eG*eG*eA) [compound 407607] | 76%

Same assay, conditions: Table 6, 50 nM, lipofectin, approximately 24 hours

Substance | % Inhibition
422189 (antisense e[5mC]*eG*e[5mC]*dG*dG*dA*dA*dG*dA*dA*dG*dG*dG*dA*d[5mC]*dG*dG*eA*eA*eG) [compound 422189] | 0%

Same assay, conditions: gapmers targeted to nucleobases 4868 to 4899 of SEQ ID NO: 1, Table 8

Substance | % Inhibition of human Factor 7 mRNA levels
422144 (antisense e[5mC]*e[5mC]*e[5mC]*eG*eA*dG*dT*dT*d[5mC]*dT*dG*d[5mC]*dA*dG*dG*eA*eG*e[5mC]*eG*eG) [compound 422144] | 58%
422298 (antisense eG*e[5mC]*d[5mC]*d[5mC]*dG*dA*dG*dT*dT*d[5mC]*dT*dG*d[5mC]*dA*dG*eG*eA*eG*e[5mC]*eG) [compound 422298] | 62%

Same assay, conditions: lipofectin, 50 nM antisense oligonucleotide, approximately 24 hours, Factor 7 mRNA by real-time RT-PCR (RTS 2927), relative to untreated control

Substance | % Inhibition
416498 (antisense eG*eG*e[5mC]*e[5mC]*eA*dG*dT*dG*dG*d[5mC]*d[5mC]*dA*dT*dG*d[5mC]*eA*eT*e[5mC]*e[5mC]*e[5mC]) [compound 416498] | 5%
416445 (antisense eT*eA*e[5mC]*eT*eG*d[5mC]*dT*d[5mC]*dA*d[5mC]*dA*dG*d[5mC]*d[5mC]*dG*e[5mC]*e[5mC]*eG*eT*eT) [compound 416445] | 57%
416425 (antisense eA*eA*eG*e[5mC]*eA*dG*dA*dA*dG*dG*d[5mC]*dA*dG*dA*dG*eG*eA*eG*e[5mC]*e[5mC]) [compound 416425] | 13%
416489 (antisense eG*eT*eG*e[5mC]*eA*dG*d[5mC]*dT*dT*dG*d[5mC]*d[5mC]*dA*dG*dG*eT*e[5mC]*e[5mC]*eT*e[5mC]) [compound 416489] | 38%
416533 (antisense eG*e[5mC]*eA*eT*eT*d[5mC]*dT*dG*dG*dA*d[5mC]*d[5mC]*d[5mC]*dA*dG*eA*eT*eG*eA*e[5mC]) [compound 416533] | 41%
416475 (antisense e[5mC]*eT*e[5mC]*eA*eG*d[5mC]*dT*dG*dG*dG*d[5mC]*dT*dG*dT*d[5mC]*eT*eG*e[5mC]*e[5mC]*eT) [compound 416475] | 70%
416494 (antisense e[5mC]*eA*eG*eA*eT*dT*dT*dA*dA*dA*d[5mC]*dT*dG*d[5mC]*dA*eG*eA*eT*eG*eA) [compound 416494] | 0%
416548 (antisense eA*eG*eG*eT*eG*dA*dA*dT*dG*dA*dA*dA*dT*dT*d[5mC]*eT*eA*e[5mC]*e[5mC]*eT) [compound 416548] | 29%
416488 (antisense e[5mC]*eA*eG*eG*eT*d[5mC]*d[5mC]*dT*d[5mC]*d[5mC]*d[5mC]*dA*d[5mC]*dT*dG*e[5mC]*eA*eG*e[5mC]*e[5mC]) [compound 416488] | 41%
416450 (antisense eG*eG*eT*eT*eT*dG*d[5mC]*dT*dG*dG*d[5mC]*dA*dT*dT*dT*e[5mC]*eT*eT*eT*eT) [compound 416450] | 49%
416484 (antisense eT*eA*e[5mC]*eA*eG*d[5mC]*d[5mC]*dT*d[5mC]*dA*dA*dA*d[5mC]*dA*dT*e[5mC]*eT*eA*eT*e[5mC]) [compound 416484] | 0%
416543 (antisense eT*e[5mC]*e[5mC]*eT*eG*d[5mC]*dG*dA*dG*dT*dG*dG*dG*dA*dG*eT*eT*eG*eG*eA) [compound 416543] | 0%

Same assay, conditions: oligonucleotides targeted to nucleobases 11830 to 11869 of SEQ ID NO: 1 (Table 9)

Substance | % Inhibition (human Factor 7 mRNA levels)
422241 (antisense eG*eA*dG*dA*d[5mC]*dA*dA*dT*dG*dG*dT*d[5mC]*dA*dG*dG*eG*e[5mC]*eT*eG*eG) [compound 422241] | 61%
422243 (antisense eA*eG*dG*dA*dG*dA*d[5mC]*dA*dA*dT*dG*dG*dT*d[5mC]*dA*eG*eG*eG*e[5mC]*eT) [compound 422243] | 62%
422089 (antisense eG*eT*e[5mC]*eA*eG*dG*dG*d[5mC]*dT*dG*dG*dT*dT*dT*dT*eG*eG*eA*eG*eG) [compound 422089] | 22%
422238 (antisense eA*e[5mC]*dA*dA*dT*dG*dG*dT*d[5mC]*dA*dG*dG*dG*d[5mC]*dT*eG*eG*eT*eT*eT) [compound 422238] | 64%
422236 (antisense eA*eA*dT*dG*dG*dT*d[5mC]*dA*dG*dG*dG*d[5mC]*dT*dG*dG*eT*eT*eT*eT*eG) [compound 422236] | 44%
422235 (antisense eA*eT*dG*dG*dT*d[5mC]*dA*dG*dG*dG*d[5mC]*dT*dG*dG*dT*eT*eT*eT*eG*eG) [compound 422235] | 50%
422246 (antisense e[5mC]*eT*dG*dA*dG*dG*dA*dG*dA*d[5mC]*dA*dA*dT*dG*dG*eT*e[5mC]*eA*eG*eG) [compound 422246] | 46%
422234 (antisense eT*eG*dG*dT*d[5mC]*dA*dG*dG*dG*d[5mC]*dT*dG*dG*dT*dT*eT*eT*eG*eG*eA) [compound 422234] | 62%
422168 (antisense eT*eG*eA*dG*dG*dA*dG*dA*d[5mC]*dA*dA*dT*dG*dG*dT*d[5mC]*dA*eG*eG*eG) [compound 422168] | 30%

Same assay, conditions: oligonucleotides targeted to nucleobases 13760 to 13789 of SEQ ID NO: 1 (Table 10)

Substance | % Inhibition (human Factor 7 mRNA levels)
422115 (antisense eG*e[5mC]*eG*e[5mC]*e[5mC]*dA*d[5mC]*d[5mC]*d[5mC]*dG*d[5mC]*d[5mC]*dG*dG*d[5mC]*eT*e[5mC]*eT*eG*e[5mC]) [compound 422115] | 66%
422185 (antisense e[5mC]*eT*eG*d[5mC]*dG*d[5mC]*d[5mC]*dA*d[5mC]*d[5mC]*d[5mC]*dG*d[5mC]*d[5mC]*dG*dG*d[5mC]*eT*e[5mC]*eT) [compound 422185] | 48%
422116 (antisense eT*eG*e[5mC]*eG*e[5mC]*d[5mC]*dA*d[5mC]*d[5mC]*d[5mC]*dG*d[5mC]*d[5mC]*dG*dG*e[5mC]*eT*e[5mC]*eT*eG) [compound 422116] | 52%

Same assay, conditions: oligonucleotides targeted to nucleobases 15098 to 15122 of SEQ ID NO: 1 (Table 12)

Substance | % Inhibition (human Factor 7 mRNA levels)
422208 (antisense eG*e[5mC]*eA*d[5mC]*dA*d[5mC]*dA*dT*dG*dG*dA*dG*dT*d[5mC]*dA*dG*d[5mC]*eA*eT*e[5mC]) [compound 422208] | 56%
422285 (antisense eG*e[5mC]*dA*d[5mC]*dA*d[5mC]*dA*dT*dG*dG*dA*dG*dT*d[5mC]*dA*eG*e[5mC]*eA*eT*e[5mC]) [compound 422285] | 39%

— patent US9029337B2, “Modulation of factor 7 expression” (Isis Pharmaceuticals, Inc., priority 2007, dated 2015)
